{"source": "patent US20130338203A1", "about": "“TREATMENT OF ARTERIAL AGEING BY COMBINATION OF RAAS INHIBITOR AND HMG-CoA REDUCTASE INHIBITOR” (FARMICOM PHARMACEUTICAL COMPANY D.O.O., priority 2011, published 2013)", "key": {"arterial wall": {"system": "arterial wall", "details": "Ex 8 valsartan group, cited from earlier work"}, "brachial artery": {"system": "brachial artery", "details": "cited from earlier work; for FMD, improvement (increase): Ex 8 valsartan group, 30 days vs before"}, "[1]": {"system": "high sensitivity C-reactive protein (hsCRP)", "details": "Ex 9 valsartan group, 1 month treatment; calculated on data from co-pending patent application; cited from earlier work"}, "[2]": {"details": "in vivo; cited from earlier work"}, "carotid artery": {"system": "carotid artery", "details": "cited from earlier work"}, "common carotid artery": {"system": "common carotid artery", "details": "cited from earlier work"}, "heart": {"system": "heart", "test": "Coronary flow rate after 6 weeks oral treatment (Example 13)", "assay_type": "in vivo, Wistar rats", "details": "rats, 6 weeks treatment p.o., 40-minute ischemia, reperfusion, P < 0.001", "description": "Sixty Wistar rats of both sexes weighing 230-280 g, 20-24 weeks of age, were obtained from the Faculty of Medicine, Ljubljana. […] A regular 12 h circadian cycle was maintained and between 5 and 7 animals were kept in each cage. The temperature of the experimental environment was 23-25° C. […] After 4-8 weeks of therapy the animals were sacrificed, blood samples were collected and heart and thoracic aorta were isolated. Each group was composed of the same number of male and female rats."}, "thoracic aorta": {"system": "thoracic aorta", "test": "Endothelium-dependent relaxation of thoracic aorta after 6 weeks oral treatment (Example 13)", "assay_type": "in vivo, Wistar rats", "details": "rats, 6 weeks treatment p.o., NS", "description": "Sixty Wistar rats of both sexes weighing 230-280 g, 20-24 weeks of age, were obtained from the Faculty of Medicine, Ljubljana. […] A regular 12 h circadian cycle was maintained and between 5 and 7 animals were kept in each cage. The temperature of the experimental environment was 23-25° C. […] After 4-8 weeks of therapy the animals were sacrificed, blood samples were collected and heart and thoracic aorta were isolated. Each group was composed of the same number of male and female rats. […] After mounting, rings were allowed to equilibrate at 20 mN resting tension (found to be optimal in previous experiments) for 60 min. During this period, the tension was periodically adjusted to the desired level and the K-H solution was changed every 10 minutes. After the equilibration period, the rings were contracted three times with 60 mmol/L KCl to achieve stable contractions. […] In control animals the endothelium-dependent relaxation of the thoracic aorta was constant. However, in rats treated with drugs the percentage of endothelium-dependent relaxation was increased in comparison to the control group."}, "[3]": {"system": "isolated rat aortic rings", "test": "Endothelium-dependent relaxation of isolated aortic rings after incubation with drugs (Example 12)"}, "isolated rat heart [4]": {"system": "isolated rat heart", "test": "Coronary flow rate of isolated heart, ischaemia-reperfusion (Example 12)"}, "isolated rat heart [5]": {"system": "isolated rat heart", "test": "LDH release rate, myocardial ischaemic-reperfusion injury of isolated heart (Example 12)", "details": "losartan 1 μM; P < 0.01"}, "[6]": {"details": "Ex 8, 1 month treatment period with Valsartan only"}, "[7]": {"details": "Ex 8 valsartan group, 20 mg daily, 30 days vs before"}, "[8]": {"details": "Ex 8 valsartan group, 20 mg daily, 30 days"}, "[9]": {"details": "Ex 8 valsartan group, 7 months of rest period"}}, "note": "Read-outs that look alike come from different tables or passages of the source.", "data": [{"smiles": "CCCCC(=O)N(Cc1ccc(-c2ccccc2-c2nnn[nH]2)cc1)[C@H](C(=O)O)C(C)C", "note": "[valsartan]", "values": [{"measurement": "Arterial age according to age normogram, improvement", "setting": "arterial wall; 20 mg daily, 30 days vs before", "value": "−7.0", "unit": "years"}, {"measurement": "Arterial age according to age normogram, after treatment", "setting": "arterial wall; 20 mg daily, 30 days", "value": 38.0, "unit": "years"}, {"measurement": "Arterial age according to age-related normogram", "setting": "arterial wall; 7 months of rest period", "value": 43.5, "unit": "years"}, {"measurement": "Arterial age, difference to before treatment (in brackets)", "setting": "arterial wall; 7 months of rest period", "value": "−1.5", "unit": "years"}, {"measurement": "Arterial age according to age normogram, before treatment", "setting": "arterial wall; baseline", "value": 45.0, "unit": "years"}, {"measurement": "FMD, residual improvement in % of effect achieved after 1 month of treatment", "setting": "brachial artery; Ex 8 valsartan group (20 mg daily, 30 days), 7 months of rest period", "value": 30.4, "unit": "%"}, {"measurement": "FMD, improvement (increase)", "setting": "brachial artery; 20 mg daily", "value": "+156.0%"}, {"measurement": "FMD, improvement (increase)", "setting": "brachial artery; 20 mg daily, listed as Valsartan", "value": 156.0, "unit": "%"}, {"measurement": "FMD, after treatment", "setting": "brachial artery; Ex 8 valsartan group: healthy men 43.0 y (n=20), 20 mg daily, 30 days, data from co-pending patent application", "value": 5.40, "unit": "%"}, {"measurement": "FMD, before treatment", "setting": "brachial artery; Ex 8 valsartan group: healthy men 43.0 y (n=20), baseline, data from co-pending patent application", "value": 2.11, "unit": "%"}, {"measurement": "Change in hs-CRP value after treatment", "setting": "[1]", "value": "+2.45%"}, {"measurement": "half-life time (t1/2) in the blood plasma", "setting": "[2]", "value": "about 6.0 hours"}, {"measurement": "β-stiffness of the carotid artery decreased by", "setting": "carotid artery; [6]", "value": 13.7, "unit": "%"}, {"measurement": "β-stiffness, improvement", "setting": "carotid artery; [7]", "value": "−13.7", "unit": "%"}, {"measurement": "β-stiffness, after treatment", "setting": "carotid artery; [8]", "value": 6.40, "unit": "U"}, {"measurement": "β-stiffness, residual improvement in % of effect achieved after 1 month of treatment", "setting": "carotid artery; [9]", "value": 9.2, "unit": "%"}, {"measurement": "β-stiffness, before treatment", "setting": "carotid artery; Ex 8 valsartan group, baseline", "value": 7.28, "unit": "U"}, {"measurement": "PWV decreased by", "setting": "common carotid artery; [6]", "value": 7.2, "unit": "%"}, {"measurement": "PWV, improvement", "setting": "common carotid artery; [7]", "value": "−7.2", "unit": "%"}, {"measurement": "PWV, after treatment", "setting": "common carotid artery; [8]", "value": 5.41, "unit": "m/s"}, {"measurement": "PWV, residual improvement in % of effect achieved after 1 month of treatment", "setting": "common carotid artery; [9]", "value": 9.9, "unit": "%"}, {"measurement": "PWV, before treatment", "setting": "common carotid artery; Ex 8 valsartan group, baseline", "value": 5.80, "unit": "m/s"}]}, {"smiles": "CC(C)c1c(C(=O)Nc2ccccc2)c(-c2ccccc2)c(-c2ccc(F)cc2)n1CC[C@@H](O)C[C@@H](O)CC(=O)O", "note": "[atorvastatin]", "values": [{"measurement": "Increase in coronary flow compared to controls", "setting": "heart; daily dose 5 mg/kg", "value": 86.9, "unit": "%"}, {"measurement": "Increase of endothelium dependent relaxation compared to controls", "setting": "thoracic aorta; daily dose 5 mg/kg", "value": 6.9, "unit": "%"}, {"measurement": "Endothelium dependent relaxation compared to controls", "setting": "[3]; atorvastatin 1 μM, P < 0.001", "value": 21.1, "unit": "%"}, {"measurement": "Increase in coronary flow compared to controls", "setting": "isolated rat heart [4]; atorvastatin 0.1 μM, P < 0.05", "value": 52.9, "unit": "%"}]}, {"smiles": "CC(C)n1c(/C=C/C(O)CC(O)CC(=O)O)c(-c2ccc(F)cc2)c2ccccc21", "note": "(stereo not drawn) [fluvastatin]", "values": [{"measurement": "half-life time (t1/2) in the blood plasma", "setting": "[2]", "value": "about 2.5 hours"}]}, {"smiles": "CCCCc1nc(Cl)c(CO)n1Cc1ccc(-c2ccccc2-c2nn[nH]n2)cc1", "note": "[losartan]", "values": [{"measurement": "Increase in coronary flow compared to controls", "setting": "heart; daily dose 2 mg/kg", "value": 89.6, "unit": "%"}, {"measurement": "Increase of endothelium dependent relaxation compared to controls", "setting": "thoracic aorta; daily dose 2 mg/kg", "value": 7.3, "unit": "%"}, {"measurement": "Decrease of the LDH release rates compared to controls", "setting": "isolated rat heart [5]", "value": 58.6, "unit": "%"}, {"measurement": "Endothelium dependent relaxation compared to controls", "setting": "[3]; losartan 10 μM, P < 0.01", "value": 17.0, "unit": "%"}, {"measurement": "Increase in coronary flow compared to controls", "setting": "isolated rat heart [4]; losartan 1 μM, P < 0.001", "value": 67.3, "unit": "%"}, {"measurement": "half-life time (t1/2) in the blood plasma", "setting": "[2]", "value": "1.5 to 2", "unit": "h"}]}]}
